The values that follow come from US10336701B2, “Pyridin-2-one derivatives of formula (II) useful as EP3 receptor antagonists” (Janssen Pharmaceutica NV, priority 2017, dated 2019).

Each structure is given as a SMILES string.

For the test, the target named is T1, EP3 receptor (Homo sapiens, UniProt P43115).
T1 construct: purchased Millipore HTS092M
T1 sequence (P43115 1-390): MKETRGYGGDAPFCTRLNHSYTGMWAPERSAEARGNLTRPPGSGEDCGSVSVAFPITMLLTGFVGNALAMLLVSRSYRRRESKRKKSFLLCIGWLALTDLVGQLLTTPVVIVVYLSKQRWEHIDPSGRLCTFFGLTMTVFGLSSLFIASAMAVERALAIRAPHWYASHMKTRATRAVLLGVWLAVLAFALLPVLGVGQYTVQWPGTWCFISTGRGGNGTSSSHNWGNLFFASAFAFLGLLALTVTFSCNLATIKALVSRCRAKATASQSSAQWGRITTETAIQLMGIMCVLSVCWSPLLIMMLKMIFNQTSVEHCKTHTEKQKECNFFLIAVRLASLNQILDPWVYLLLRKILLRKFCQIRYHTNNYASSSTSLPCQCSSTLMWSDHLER
The test is described as follows: [3H]-PGE2 binding assay (EP3 competition binding). The following applies: read-out: [3H]-PGE2 Binding Ki. As to the method: EP3 competition binding was determined using the following materials and experimental conditions:
Beads=Perkin Elmer RPNQ0001
EP3 membrane=Millipore HTS092M
Membrane concentration=2 μg/well
Beads concentration=0.25 mg/well
[3H]-PGE2=2 nM; DMSO—0.1%
Binding buffer=50 mM Tris, 10 mM MgCl2, 1 mM • EDTA, PH 7.4.
The binding buffer was removed from refrigeration (@ 4° C.) and allowed to warm to room temperature. Test compound (@ stock concentration of […] in DMSO) was serial dilutes (1:3) with 100% DMSO using Echo plate. Diluted test compound (30 nL) was dispensed to the 384-well assay plate (using Echo 550 Labcyte System). To each well was then added assay buffer (5 μl) and each well was spun. Beads were weighed out, dissolved in assay buffer to a concentration of 0.25 mg/15 μl. Original membrane was diluted with assay buffer to a concentration of 2 μg/5 μl. […] To each test well were then added diluted [3H]-PGE2 (5 μl), diluted membrane (5 μl), and dissolved beads (15 μl). The plate was equilibrated at room temperature on a plate shaker for 2 hours and then read with a TOPCOUNT scintillation plate reader. Results were analyzed using a Prism program with non-linear regression, one-site fit for Ki.

As for `CCn1ncc2c(F)cc(-c3ccc(C(CC)(CC)c4nnc(C(F)(F)F)o4)c(=O)[nH]3)cc21` [Compound #45, 6-(1-ethyl-4-fluoro-1H-indazol-6-yl)-3-(3-(5-(trifluoromethyl)-1,3,4-oxadiazol-2-yl)pentan-3-yl)py-ridine-2(1H)-one], the Ki turned out to be 59 nM. Under `CCn1ncc2c(F)cc(-c3ccc(C(CC4CCNC4=O)C(C)C)c(=O)[nH]3)cc21` (stereo not drawn) [compound 148, anti-6-(1-ethyl-4-fluoro-1H-indazol-6-yl)-3-(3-methyl-1-(2-oxopyrrolidin-3-yl)butan-2-yl)pyridin-2(1H)-one] stands 787 nM; under `CCC(CC)(c1nnc[nH]1)c1ccc(-c2ccc3c(F)cc(F)cc3c2)[nH]c1=O` [compound 33, 3-(3-(4H-1,2,4-triazol-3-yl)pentan-3-yl)-6-(5,7-difluoronaphthalen-2-yl)pyridin-2(1H)-one], 735 nM. The value for `CCn1ncc2c(F)cc(-c3[nH]c(=O)c(C(/C=C4\CCNC4=O)(CC)CC)cc3F)cc21` [compound 47, (E)-6-(1-ethyl-4-fluoro-1H-indazol-6-yl)-5-fluoro-3-(3-((2-oxopyrrolidin-3-ylidene)methyl)pentan-3-yl)pyridin-2(1H)-one] was 25 nM; that for `CCn1ncc2c(F)cc(-c3ccc(C(CC4(C)CCNC4=O)C(C)C)c(=O)[nH]3)cc21` (stereo not drawn) [compound 146, 6-(1-ethyl-4-fluoro-1H-indazol-6-yl)-3-(3-methyl-1-(3-methyl-2-oxopyrrolidin-3-yl)butan-2-yl)pyridin-2(1H)-one] was 6 nM. As to `CCn1ncc2c(F)cc(-c3[nH]c(=O)c(C(CC)(CC)c4ncco4)cc3F)cc21` [Compound #37, 6-(1-ethyl-4-fluoro-1H-indazol-6-yl)-5-fluoro-3-(3-(oxazol-2-yl)pentan-3-yl)pyridin-2(1H)-one], the Ki worked out at 24 nM. Under `CC(C)C(/C=C1\OC(=O)NC1=O)c1ccc(-c2ccc3cccc(C#N)c3c2)[nH]c1=O` (mixture of isomers) [compound 142, (Z)-7-(5-(1-(2,4-dioxooxazolidin-5-ylidene)-3-methylbutan-2-yl)-6-oxo-1,6-dihydropyridin-2-yl)-1-naphthonitrile] stands 121 nM. Under `CCn1ncc2c(F)cc(-c3ccc(C(CC)(CC)Cc4ncco4)c(=O)[nH]3)cc21` [Compound #41, 6-(1-ethyl-4-fluoro-1H-indazol-6-yl)-3-(3-(oxazol-2-ylmethyl)pentan-3-yl)pyridin-2(1H)-one] stands 2 nM. The value for `CCn1ncc2c(F)cc(-c3ccc(C(CC4CCNC4=O)C(C)C)c(=O)[nH]3)cc21` (stereo not drawn) [compound 147, Syn-6-(1-ethyl-4-fluoro-1H-indazol-6-yl)-3-(3-methyl-1-(2-oxopyrrolidin-3-yl)butan-2-yl)pyridin-2(1H)-one] was 632 nM; that for `CCn1ncc2c(F)cc(-c3ccc(C(C(C)C)n4cnnn4)c(=O)[nH]3)cc21` (stereo not drawn) [Compound #171, 6-(1-ethyl-4-fluoro-1H-indazol-6-yl)-3-(2-methyl-1-(1H-tetrazol-1-yl)propyl)pyridin-2(1H)-one] was 29 nM; that for `CCC(CC)(Cc1nnc[nH]1)c1ccc(-c2ccc3cc(F)cc(F)c3c2)[nH]c1=O` [compound 279, 3-(3-((4H-1,2,4-triazol-3-yl)methyl)pentan-3-yl)-6-(6,8-difluoronaphthalen-2-yl)pyridin-2(3H)-one] was 60 nM. For the compound `CCN1CCOc2c(F)cc(-c3ccc(C(CC)(CC)CC4CCNC4=O)c(=O)[nH]3)cc21` (stereo not drawn) [compound 17, 6-(4-ethyl-8-fluoro-3,4-dihydro-2H-benzo[b][1,4]oxazin-6-yl)-3-(3-((2-oxopyrrolidin-3-yl)methyl)pentan-3-yl)pyridin-2(1H)-one], the Ki is 14 nM. Under `CCC(/C=C1/OC(=O)NC1=O)(CC)c1ccc(-c2ccc3c(F)cc(F)cc3c2)[nH]c1=O` [compound 10, (E)-5-(2-(6-(5,7-difluoronaphthalen-2-yl)-2-oxo-1,2-dihydropyridin-3-yl)-2-ethylbutylidene)oxazolidine-2,4-dione] stands 28 nM; under `CCc1nnc(C(CC)(CC)c2ccc(-c3cc(F)c4cnn(CC)c4c3)[nH]c2=O)o1` [Compound #53, 3-(3-(5-ethyl-1,3,4-oxadiazol-2-yl)pentan-3-yl)-6-(1-ethyl-4-fluoro-1H-indazol-6-yl)pyridin-2(1H)-one], 6 nM. For the compound `CCn1ncc2c(F)cc(-c3ccc(C(CC)(CC)Cc4ncc[nH]4)c(=O)[nH]3)cc21` [compound 20, 3-(3-((1H-imidazol-2-yl)methyl)pentan-3-yl)-6-(1-ethyl-4-fluoro-1H-indazol-6-yl)pyridin-2(1H)-one], the inhibitory constant (Ki) was determined as 11 nM. `CCn1ncc2c(F)cc(-c3ccc(C4CC5CN(S(=O)(=O)C(C)C)CC5C4)c(=O)[nH]3)cc21` (stereo not drawn) [compound 205, 6-(1-ethyl-4-fluoro-1H-indazol-6-yl)-3-(2-(isopropylsulfonyl)-octahydrocyclopenta[c]pyrrol-5-yl)pyridin-2(1H)-one]: the inhibition constant (Ki) was 51 nM. Under `CCn1ncc2c(F)cc(-c3ccc(C(CC)(CC)c4nnc(C)o4)c(=O)[nH]3)cc21` [Compound #271, 6-(1-ethyl-4-fluoro-1H-indazol-6-yl)-3-(3-(5-methyl-1,3,4-oxadiazol-2-yl)pentan-3-yl)pyridin-2(1H)-one] stands 6 nM; under `CCn1ncc2c(F)cc(-c3ccc(C(CC)(CC)Cc4nnc[nH]4)c(=O)[nH]3)cc21` [compound 15, 3-(3-((4H-1,2,4-triazol-3-yl)methyl)pentan-3-yl)-6-(1-ethyl-4-fluoro-1H-indazol-6-yl)pyridin-2(1H)-one], 7 nM; under `CCn1ncc2c(F)cc(-c3ccc(C4CC5CN(C(=O)NC(C)C)CC5C4)c(=O)[nH]3)cc21` (stereo not drawn) [compound 209, 5-(6-(1-ethyl-4-fluoro-1H-indazol-6-yl)-2-oxo-1,2-dihydropyridin-3-yl)-N-isopropyl-hexahydrocyclopenta[c]pyrrole-2(1H)-carboxamide], 20 nM. Under `CCn1ncc2c(F)cc(-c3ccc(C4CCC5(CC4)CCN(S(=O)(=O)C(C)C)CC5)c(=O)[nH]3)cc21` [compound 204, 6-(1-ethyl-4-fluoroindazol-6-yl)-3-[3-(propane-2-sulfonyl)-3-azaspiro[5.5]undecan-9-yl]-1H-pyridin-2-one] stands 12 nM; under `CCn1ncc2c(F)cc(-c3ccc(C4(C(C)C)OCCNC4=O)c(=O)[nH]3)cc21` (stereo not drawn) [compound 248, 2-(6-(1-ethyl-4-fluoro-1H-indazol-6-yl)-2-oxo-1,2-dihydropyridin-3-yl)-2-isopropylmorpholin-3-one], 10 nM; under `CCn1ncc2c(F)cc(-c3ccc([C@@]45CCC[C@@H](C4)C(=O)O5)c(=O)[nH]3)cc21` (racemic) [compound 299], 29 nM.

`CCn1ncc2c(F)cc(-c3[nH]c(=O)c(C(CC)(CC)CC4=CCNC4=O)cc3F)cc21` [compound 46, 6-(1-ethyl-4-fluoro-1H-indazol-6-yl)-5-fluoro-3-(3-((2-oxo-2,5-dihydro-1H-pyrrol-3-yl)methyl)pentan-3-yl)pyridin-2(1H)-one]: the inhibitory constant (Ki) was determined as 452 nM.

For the compound `CCn1ncc2c(F)cc(-c3[nH]c(=O)c(C(CC)(CC)c4nnc[nH]4)cc3F)cc21` [compound 36, 3-(3-(4H-1,2,4-triazol-3-yl)pentan-3-yl)-6-(1-ethyl-4-fluoro-1H-indazol-6-yl)-5-fluoropyridin-2(1H)-one], the inhibition constant (Ki) was 195 nM.
